“Also recorded” adds a separate entry of the source.
Legend:
HDV = HDV infection of HepaRG cells (HDAg immunofluorescence); type: cell-based, hepatitis delta virus; settings: HDAg positive cells, day 5; concentration-dependent
human ASBT = target: T1, human ASBT (Homo sapiens, UniProt Q12908); test: Taurocholate uptake in MDCK-hASBT cells; type: cell-based; settings: compared with NTCP
T1 construct: expressed in transfected cells; gift of Paul Dawson; induced with sodium butyrate
T1 sequence (Q12908 1-348): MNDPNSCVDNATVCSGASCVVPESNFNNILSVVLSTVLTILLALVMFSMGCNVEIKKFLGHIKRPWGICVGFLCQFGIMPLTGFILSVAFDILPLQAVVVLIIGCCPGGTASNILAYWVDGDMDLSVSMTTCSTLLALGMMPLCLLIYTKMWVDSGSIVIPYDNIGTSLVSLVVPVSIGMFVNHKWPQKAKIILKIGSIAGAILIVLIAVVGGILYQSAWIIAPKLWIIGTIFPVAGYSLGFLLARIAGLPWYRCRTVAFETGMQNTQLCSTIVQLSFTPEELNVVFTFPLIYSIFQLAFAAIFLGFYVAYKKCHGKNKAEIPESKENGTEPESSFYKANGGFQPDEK
Protocol: U2OS and MDCK cells were grown in Dulbecco’s modified Eagle’s medium (DMEM, Sigma-Aldrich), supplemented with 10% FCS (Gibco), 1% L-glutamine (Lonza), and 1% penicillin/streptomycin (Lonza). […] Transient transfection of U2OS cells with mouse NTCP (mNTCP) was done with PEI reagent (Brunschwig, Basel, Switzerland). Shortly, U2OS cells were seeded one day prior to transfection in 24-well plates. On the day of transfection, 0.5 µg DNA was mixed with 100 µl unsupplemented DMEM and 3 µg/µl PEI. After 10–15 minute incubation at RT, 20 µl of the transfection mix was added to each 24-well. Transfected cells were used in further experiments 48–72 hours later. Cell lines were passaged twice a week at a confluence of 80%, and incubated in a humidified atmosphere of 37 °C + 5% CO2.
(§1) For MDCK or MDCK-hASBT cells 70.000 cells/well were plated in 24-well plates, followed by 24 hours 10 mM sodium butyrate (Sigma-Aldrich) stimulation the next day. Cells were used in the inhibition studies 24 hours (U2OS cell lines) or 48 hours (MDCK cell lines) later. Inhibition studies with mNTCP transiently transfected cells were conducted 48–72 hours after transfection.
(§2) Medium was aspirated from the wells and cells were washed once with 250 µL uptake buffer. Subsequently, cells were pre-incubated with drug in 150 µL uptake buffer for 10 minutes at 37 °C. Taurocholate uptake was initiated by addition of 100 µL uptake buffer containing taurocholate (final concentration 10 µM TC spiked with tritium-labeled TC) and cells were incubated for 2 minutes at 37 °C. Subsequently, cells were washed 4 times with ice-cold PBS and lysed with 0.05% SDS in water. Radioactivity was measured by liquid scintillation counting.

human NTCP [1] = target: T2, human NTCP (Homo sapiens, UniProt Q14973); test: Taurocholate uptake inhibition studies in U2OS-HA-hNTCP cells; type: cell-based; parameters: HA; expressed in transfected cells
T2 sequence (Q14973 1-349): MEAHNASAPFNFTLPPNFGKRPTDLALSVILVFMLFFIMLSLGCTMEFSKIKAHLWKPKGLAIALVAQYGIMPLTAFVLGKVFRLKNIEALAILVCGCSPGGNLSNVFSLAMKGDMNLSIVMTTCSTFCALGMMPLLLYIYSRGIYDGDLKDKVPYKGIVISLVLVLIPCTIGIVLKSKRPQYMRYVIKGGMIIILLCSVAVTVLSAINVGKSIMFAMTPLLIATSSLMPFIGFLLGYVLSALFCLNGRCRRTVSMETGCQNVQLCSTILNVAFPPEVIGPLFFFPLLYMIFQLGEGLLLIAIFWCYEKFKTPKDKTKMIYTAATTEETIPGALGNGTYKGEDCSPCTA
Protocol: as §1, §2

human NTCP [2] = target: T2, human NTCP; test: Screening taurocholate uptake assay (96-well, [14C]taurocholate, 10 µM drug)

O=C(O)c1cc(/N=N/c2ccc(S(=O)(=O)Nc3ccccn3)cc2)ccc1O [Sulfasalazine]
HDV infection in HepaRG cells (in words) (HDV): reduced HBV/HDV infection; also recorded: reduce
inhibition of ASBT-mediated taurocholate uptake (human ASBT): largely ineffective
inhibition of ASBT-mediated taurocholate uptake (human ASBT; listed as sulfasalazine): Complete absence of ASBT inhibition
HBV infection in HepaRG cells (in words) (HBV; HBeAg, HBsAg, HBcAg, concentration-dependent): reduced HBV/HDV infection; also recorded: reduce
concentration effective in reducing HBsAg (HBV; HepaRG cells infected with HBV, supernatant day 7 to 10): ≥ 50 µM
number of HBcAg positive stained cells (HBV; HepaRG cells, day 10 post HBV infection, 50 µM): mild reduction
concentration at which NTCP was inhibited in repeated measurements of TC-uptake and Myrcludex B binding (human NTCP [1]; U2OS-HA-hNTCP cells, both TC uptake and Myrcludex B binding): ≤ 10 µM
IC50 (human NTCP [1]; U2OS-HA-hNTCP cells, concentrations 1 nM to 10 mM, read-out: IC50 for hNTCP-mediated TC uptake): 9.6 µM
Taurocholate uptake into U2OS-HA-hNTCP cells (in words) (human NTCP [1]; increasing drug concentrations): reduced
Ranking score (human NTCP [2]; ranking over the functional and the binding screening assay): 34.8999
B-score functional assay (human NTCP [2]; screening taurocholate uptake, 10 µM drug): -3.903
